Measurements as given in the NIST ThermoML archive (doi:10.1021/je100927m).

How the values were obtained:
[1] = Liquid; for mass density: 101.33 kPa; for speed of sound: Pulse-echo method
[2] = refractive index (Na D-line) (dimensionless); conditions: 298.15 K; 101.33 kPa; Liquid; Standard Abbe refractometry

CCCCC(CC)CO (stereo unspecified) [2-ethyl-1-hexanol]
[1]
Conditions | mass density [kg/m3]
283.15 K | 839.89
288.15 K | 836.26
293.15 K | 832.62
298.14 K | 828.96
303.15 K | 825.28
308.15 K | 821.58
313.14 K | 817.86
318.15 K | 814.11
323.15 K | 810.33
328.15 K | 806.52
333.15 K | 802.68
338.14 K | 798.8
343.15 K | 794.87
348.15 K | 790.91
353.15 K | 786.89
358.15 K | 782.83
363.15 K | 778.72

speed of sound [m/s], [1]
Conditions | 101 kPa | 15200 kPa | 30390 kPa | 45590 kPa | 60790 kPa | 75990 kPa | 91180 kPa | 101320 kPa
292.89 K | – | 1418.5 | 1487.2 | 1549.6 | 1607.2 | 1660.4 | 1710.5 | 1742
293.15 K | 1336.3 | – | – | – | – | – | – | –
298.15 K | 1318.4 | – | – | – | – | – | – | –
298.19 K | – | 1400.2 | 1470.1 | 1533.2 | 1591.5 | 1645.4 | 1696 | 1728
303.15 K | 1300.6 | 1383.5 | 1454.4 | 1518.4 | 1577.5 | 1631.8 | 1682.7 | 1715.1
308.13 K | – | 1367.2 | 1438.9 | 1503.8 | 1563.5 | 1618.6 | 1669.8 | 1702.5
308.15 K | 1282.8 | – | – | – | – | – | – | –
313.1 K | – | 1351.2 | 1424 | 1489.6 | 1549.7 | 1605.5 | 1657.2 | 1689.9
313.15 K | 1264.9 | – | – | – | – | – | – | –
318.15 K | 1247.1 | – | – | – | – | – | – | –
318.26 K | – | 1334.8 | 1408.8 | 1475.2 | 1535.9 | 1592.2 | 1644.5 | 1677.4

Conditions | refractive index
[2] | 1.4292
